Tests used:
[1] = AAPH peroxyl-radical oxidation of linoleic acid/SDS micelles, malondialdehyde formation; conditions: 2, 4, 20 and 50 mM AAPH; 5 ml emulsion plus 5 ml perflubron, room temperature (FIGS. 4A-D)
Experimental: This embodiment illustrates the effect of perfluorocarbon on fatty acid oxidation in a non-biological system (fatty acid micelles). Linoleic acid micelles were prepared as follows: Linoleic acid (3 mM) was emulsified into phosphate buffered saline (PBS) using the detergent sodium dodecyl sulfate (SDS, 250 μM). Linoleic acid/SDS micelles in PBS were formed by agitation and sonication of the resulting emulsion. The emulsion (5 ml) was exposed to perfluorocarbon by the addition of perflubron (PFOB, 5 ml, available commercially) to the system. Emulsions not exposed to perflubron served as controls. The emulsion/PFOB system (PFOB exposed micelles) and the non-exposed micelles (control) were agitated (xyz axial shaker) at room temperature. […] The degree of oxidative injury to the linoleic acid/SDS micelles was assessed by measuring malondialdehyde concentrations in aliquots taken from the emulsion phase at different time intervals. […] Malondialdehyde was measured using the method of Esterbauer and Cheeseman (Meth. Enzymol. 1990; 186:407-421). […] Absorbance changes were measured using a spectrophotometer (Beckman DU 650, Beckman Instruments) at 586 nm, against standard curves of 1,1,3,3-tetramethoxypropane at the end of the incubation period. […]

[2] = system: Rat pulmonary artery endothelial cells (RPAECs); assay: H2O2 oxidative stress to endothelial cell monolayers, DCFDA fluorescence (confocal imaging); assay type: cell-based
Experimental: Rat pulmonary artery endothelial cells (RPAECs) were grown to confluence on optical grade culture dishes using standard technique. Cells were grown in Dulbecco's Modified Eagles Medium (high glucose) containing […], 0.8 M NaOH 10% serum (calf serum). Cells were incubated at 37° C. in 5% CO2, 95% relative humidity.
An oxidative stress indicator, dichlorofluorescein diacetate (DCFDA), was used to indicate the extent of injury to cells. DCFDA is a colorless substance that permeates through the cell membrane. Fresh DCFDA (5 uM) was prepared by solubilizing 2.4 mg DCFDA in 300 ul DMSO, then diluting the solution in […] Phosphate buffered saline (PBS), pH 7.4. […] Upon excitation by contact with free radicals, the dye DCFDA becomes fluorescent and the intensity of fluorescence is directly proportional to the degree of oxidative stress suffered by the cells. […]
Oxidative stress was initiated by the addition of the buffer containing 10 mM H2O2 in PBS to the cell monolayers. Oxidative stress to cells was measured by sequential imaging with a confocal laser microscope obtained at baseline and every 10 seconds for 120 seconds. The excitation filter was wet at 488 nm and the images were read at 515 nm. […]
Relative fluorescence of cell monolayers exposed to perflubron (open circles) and standard buffer (closed circles) are shown in FIG. 1. […] Data are expressed as mean+standard error of the mean. […]

For `FC(F)(F)C(F)(F)C(F)(F)C(F)(F)C(F)(F)C(F)(F)C(F)(F)C(F)(F)Br` [PFOB, perfluorooctyl bromide], the “oxidative damage to fatty acid micelles (malondialdehyde concentration)” value [1] was “attenuates oxidative damage to fatty acid micelles”, the “oxidative injury to cell monolayers” value ([2]; 10 mM H2O2 in PBS, imaging every 10 seconds for 120 seconds, perflubron removed by aspiration or evaporation (FIGS. 1, 2 and 3)) was “attenuates oxidative injury to cell monolayers” and the “DCFDA fluorescence (indicator of free radicals) in cell cultures” value ([2]; after 120 seconds of oxidative stress with 10 mM H2O2, cells pre-exposed 1 minute to 1 ml PFOB, then removed (C120, FIG. 2 and 3)) was “lack of fluorescence”.

— patent US6894079B1, “Method for reducing free-radical induced injury” (priority 1998, dated 2005)
